{"source": "patent US8618067B2", "about": "“L-sugar colon cleansing agent and uses thereof” (Aptalis Pharma US, Inc., priority 2009, dated 2013)", "key": {"colon [1]": {"test_system": "colon", "assay": "Open-label, historically controlled, single-dose study of L-glucose as colon-cleansing agent before colonoscopy (Raymer et al.)", "format": "in vivo, human", "conditions": "24-g single dose; equivalent of the 80% success rating", "experimental": "For example, an open-label, historically controlled, single-dose study of a 24-g dose of L-glucose was conducted to determine the safety and effectiveness of L-glucose as a colon-cleansing agent before colonoscopy (Raymer et al., “An open-label trial of L-glucose as a colon-cleansing agent before colonoscopy,” Gastrointest Endosc 58(1):30-5, 2003)."}, "colon [2]": {"test_system": "colon", "assay": "Comparative Example 1: multicenter, double-blind, dose-range-finding study of L-glucose as colon-cleansing agent before colonoscopy", "format": "in vivo, human", "conditions": "single doses 12 g, 16 g, 20 g, 24 g; scale of Hsu et al.", "experimental": "A multicenter, double-blind, dose-range-finding study to evaluate the effectiveness and safety of L-glucose as a colon-cleansing agent before colonoscopy was conducted. Doses used in this study were 12 g, 16 g, 20 g, and 24 g. The assessment of the preparations was based on the scale used in Hsu et al., “Meta-analysis and cost comparison of polyethylene glycol lavage versus sodium phosphate for colonoscopy preparation,” Gastrointestinal Endoscopy 48(3):276-282, 1998, wherein small bits of fecal material in the colon were allowed in an “Excellent” score."}, "colon [3]": {"test_system": "colon", "assay": "Comparative Example 2: randomized, single-blind study of L-glucose as bowel preparation before colonoscopy (GPA scale)", "format": "in vivo, human", "experimental": "(§1) Global Preparation Assessment\n(§2) Excellent=clean colon or small volume of clear liquid\n(§3) Good=moderate to large volume of clear to semiclear liquid\n(§4) Fair=some semisolid stool suctioned or washed away\n(§5) Poor=semisolid or solid stool unable to be suctioned or washed away\nA randomized, single-blind study designed to determine the clinical effectiveness of L-glucose as a bowel preparation before colonoscopy was performed. Three dose regimens were evaluated: 24 g in the evening only, 30 g in the evening only, and 24 g in the evening followed by 12 g in the morning (36 g total). Here, Applicant's GPA scale described herein was used to evaluate the preparations. […] Clinical efficacy (defined as a combination of “excellent” and “good” assessments) for the split-dose schedule was 19/27 (70%), as compared to 7/31 (23%) in the single-dose schedule (p<0.001).\nAs noted above in the description of Applicant's GPA scale, the criteria for determining whether a preparation was deemed “excellent” or “good” was respectively defined as “clean colon or small volume of clear liquid” or “moderate to large volume of clear to semi-clear liquid.” These criteria are more stringent than the rating system used by Raymer et al. discussed supra since Raymer's “excellent” and “good” ratings were respectively defined as “no more than small bits of adherent fecal fluid” and “small amounts of feces or fluid not interfering with the examination.” Thus, Raymer's “excellent” rating would likely not qualify as even a “good” rating in Applicant's GPA scale."}, "colon [4]": {"test_system": "colon", "assay": "Example 3: open-label, 2-site dose-escalating split-dose study of L-glucose before colonoscopy (GPA and RSS)", "format": "in vivo, human", "excerpt": "Applicants have relied upon a combination of a categorical, 4-point scale and a numerical, segmental scoring system to assess bowel cleansing quality (Balaban et al. “Low volume bowel preparation for colonoscopy: randomized, endoscopist-blinded trial of liquid sodium phosphate versus tablet sodium phosphate,” Am J Gastroenterol 98:827-32, 2003). The basic 4-point scale, known as the Global Preparation Assessment (GPA), is essentially the same as the original scale used in the first randomized controlled trial of PHOSPHO-SODA™ as a bowel cleansing agent published in 1990 by Vanner, et al. (“A randomized prospective trial comparing oral sodium phosphate with standard polyethylene glycol-based lavage solution (Golytely) in the preparation of patients for colonoscopy,” Am J Gastroenterol 85:422-7, 1990). The numerical scoring system, known as the Residual Stool Score (RSS), is a continuously variable, averaged segmental scoring instrument that assesses both the amount and consistency of residual stool before suctioning (a measure of the cathartic activity of the bowel cleansing regimen) as well as the percent of the bowel wall seen after washing and cleansing (a measure of the ultimate endpoint for bowel preparation success). The two scales are shown below.\nas §1, §2, §3, §4, §5\nThis open-label, 2-site study employed a dose-escalating design using 3 split doses of L-glucose (24 g/24 g, 36 g/36 g, and 48 g/48 g). The doses were administered the night before and the morning of a scheduled colonoscopy. The study was conducted in Phase I facilities to control for administration of L-glucose and adherence to the dietary and hydration regimen.\nThree dose cohorts of 24 subjects were evenly divided between males and females for each cohort. Subjects who were scheduled to undergo an elective colonoscopy, who met the study entrance criteria, and who gave their consent to participate in the study were enrolled. […] Each subject observed a strict diet and hydration regimen as part of the study medication administration.\nThe site pharmacist prepared the L-glucose preparation based on the study medication preparation manual provided. Each subject, regardless of dose cohort, received the dose in 8 ounces of water, which was to be consumed within a 10-minute period. Dose cohorts proceeded in a dose-escalating fashion starting with the lowest dose (24 g/24 g) and escalated according to a dose escalation decision tree.\nThe physician performing the colonoscopy utilized Applicant's GPA scale to evaluate the quality of bowel preparation as before suctioning and washing.\nThe Residual Stool Score (RSS) described above was also used to assess bowel cleansing in each of the 5 segments of the bowel (rectum, descending colon, transverse colon, ascending colon, and cecum). As noted, assessments included the amount of stool present, the consistency of the stool, and the estimated percentage of the bowel wall visualized in each segment.\nFor reasons of inadequate bowel preparation, sections of the bowel that were not directly examined during colonoscopy were rated as “poor” on all three measures listed previously.\nA total of 24 subjects were enrolled into each of the three dose cohorts. All 72 subjects were included in the intent-to-treat (ITT) and safety populations."}, "[5]": {"conditions": "cited from earlier work"}, "colon [6]": {"test_system": "colon", "conditions": "24-g single dose; Raymer scale; cited from earlier work"}, "[7]": {"conditions": "cited from earlier work", "remark": "listed apart in the source"}, "[8]": {"assay": "Dissolution of solid L-glucose forms in water with consumer-like stirring", "format": "physicochemical", "conditions": "for Time of stirring until sample fully dissolved: 53 g in 240 mL doubly distilled water", "experimental": "Each sample comprises approximately an equivalent amount of L-glucose on a weight basis. Carefully, to avoid agitation and mixing, doubly distilled water (240 mL) is added to each beaker. In one example, the solution is stirred immediately after addition of water. […] The stiffing was conducted in a manner duplicating the way a consumer is expected to stir a sample prior to use."}, "[9]": {"conditions": "48 g/48 g dose compared with lower split doses"}}, "note": "Where “and” joins values, the source holds several entries; their conditions need not be identical. Identical values can stand only once."}
{"smiles": "O=C[C@@H](O)[C@H](O)[C@@H](O)[C@@H](O)CO", "note": "[L-glucose]", "values": [{"measurement": "Failure rating", "setting": "colon [1]", "result": 20, "unit": "%"}, {"measurement": "Acceptability as a colonic cleanser", "setting": "colon [2]", "result": "not acceptable"}, {"measurement": "Outcome of the evening-only dose arms", "setting": "colon [3]; 24 g and 30 g evening only", "result": "suspended for lack of effectiveness"}, {"measurement": "Changes in laboratory test results", "setting": "colon [3]; in vivo", "result": "no clinically significant changes"}, {"measurement": "Commonly reported adverse events", "setting": "colon [3]; in vivo", "result": "generally absent or mild"}, {"measurement": "Overall tolerance to the bowel preparation", "setting": "colon [3]; in vivo", "result": "good or very good"}, {"measurement": "Subjects with GPA rated Excellent (clean colon or small volume of clear liquid)", "setting": "colon [4]; 24 g/24 g cohort", "result": "12 (50.0%) subjects (%) and 12 (50.0) subjects (%)"}, {"measurement": "Subjects with GPA rated Fair (some semisolid stool suctioned or washed away)", "setting": "colon [4]; 24 g/24 g cohort", "result": "5 (20.8) subjects (%)"}, {"measurement": "Subjects with GPA rated Good (moderate to large volume of clear to semiclear liquid)", "setting": "colon [4]; 24 g/24 g cohort", "result": "7 (29.2) subjects (%)"}, {"measurement": "Subjects with GPA rated Poor (semisolid or solid stool unable to be suctioned or washed away)", "setting": "colon [4]; 24 g/24 g cohort", "result": "0 (0.0) subjects (%)"}, {"measurement": "Subjects with GPA rated Excellent (clean colon or small volume of clear liquid)", "setting": "colon [4]; 36 g/36 g cohort", "result": "14 (58.3%) subjects (%) and 14 (58.3) subjects (%)"}, {"measurement": "Subjects with GPA rated Fair (some semisolid stool suctioned or washed away)", "setting": "colon [4]; 36 g/36 g cohort", "result": "2 (8.3) subjects (%)"}, {"measurement": "Subjects with GPA rated Good (moderate to large volume of clear to semiclear liquid)", "setting": "colon [4]; 36 g/36 g cohort", "result": "7 (29.2) subjects (%)"}, {"measurement": "Subjects with GPA rated Poor (semisolid or solid stool unable to be suctioned or washed away)", "setting": "colon [4]; 36 g/36 g cohort", "result": "1 (4.2%) subjects (%) and 1 (4.2) subjects (%)"}, {"measurement": "Subjects with GPA rated Excellent (clean colon or small volume of clear liquid)", "setting": "colon [4]; 48 g/48 g cohort", "result": "22 (91.7%) subjects (%) and 22 (91.7) subjects (%)"}, {"measurement": "Subjects with GPA rated Fair (some semisolid stool suctioned or washed away)", "setting": "colon [4]; 48 g/48 g cohort", "result": "1 (4.2) subjects (%)"}, {"measurement": "Subjects with GPA rated Good (moderate to large volume of clear to semiclear liquid)", "setting": "colon [4]; 48 g/48 g cohort", "result": "1 (4.2) subjects (%)"}, {"measurement": "Subjects with GPA rated Poor (semisolid or solid stool unable to be suctioned or washed away)", "setting": "colon [4]; 48 g/48 g cohort", "result": "0 (0.0) subjects (%)"}, {"measurement": "Robustness of bowel cleansing", "setting": "colon [4]; [9]", "result": "more robust bowel cleansing"}, {"measurement": "Time to the first watery bowel movement", "setting": "colon [4]; [9]", "result": "shortest time to the first watery bowel movement"}, {"measurement": "Subjects who had a complete colonoscopy", "setting": "colon [4]; Site 01, all dose cohorts", "result": "30 (96.8%) subjects (%)"}, {"measurement": "Subjects with GPA rated poor", "setting": "colon [4]; Site 01, all dose cohorts", "result": "1 (3.2%) subjects (%)"}, {"measurement": "Subjects who had a complete colonoscopy", "setting": "colon [4]; Site 02, all dose cohorts", "result": "39 (95.1%) subjects (%)"}, {"measurement": "Subjects with GPA rated Excellent (clean colon or small volume of clear liquid)", "setting": "colon [4]; Total of all cohorts", "result": "48 (66.7) subjects (%)"}, {"measurement": "Subjects with GPA rated Fair (some semisolid stool suctioned or washed away)", "setting": "colon [4]; Total of all cohorts", "result": "8 (11.1) subjects (%)"}, {"measurement": "Subjects with GPA rated Good (moderate to large volume of clear to semiclear liquid)", "setting": "colon [4]; Total of all cohorts", "result": "15 (20.8) subjects (%)"}, {"measurement": "Subjects with GPA rated Poor (semisolid or solid stool unable to be suctioned or washed away)", "setting": "colon [4]; Total of all cohorts", "result": "1 (1.4) subjects (%)"}, {"measurement": "Subjects who had a complete colonoscopy (endoscopist able to reach the cecum)", "setting": "colon [4]; in each dose cohort (24 g/24 g, 36 g/36 g, 48 g/48 g)", "result": "23 (95.8%) subjects (%)"}, {"measurement": "Effect of food restriction on the metabolism of L-glucose", "setting": "[5]; in vivo", "result": "no significant effect"}, {"measurement": "Major route of L-glucose elimination", "setting": "[5]; mice, rats, dogs, rabbits, and monkeys", "result": "urinary excretion"}, {"measurement": "Subjects with colonoscopy preparation grade of excellent or good", "setting": "colon [6]", "result": 80, "unit": "%"}, {"measurement": "Absorption from the human intestine", "setting": "[7]", "result": "moderately absorbed"}, {"measurement": "Glucose or insulin response after administration", "setting": "[7]; human", "result": "No significant glucose or insulin response"}, {"measurement": "Lower gastrointestinal symptoms (cramping, gas/flatus), mild", "setting": "[7]; human", "result": "occurred in a majority of subjects"}, {"measurement": "Metabolism by colonic bacteria (breath hydrogen, comparable with in vitro studies)", "setting": "[7]; human", "result": "colonic bacteria do not metabolize"}, {"measurement": "Mild upper gastrointestinal symptoms (vomiting, nausea, belching/rifting, bloating)", "setting": "[7]; human", "result": "occurred in a minority of subjects"}]}
{"smiles": "OC[C@@H]1OC(O)[C@@H](O)[C@H](O)[C@H]1O", "note": "(stereo partly drawn) [anhydrous L-glucose, reference compound]", "values": [{"measurement": "Observations: clusters or clumping of solid", "setting": "[8]; 5 min. delay", "result": "Material clumped into a hard mass during time"}, {"measurement": "Observations: appearance of final solution", "setting": "[8]; No delay", "result": "stirring. Clear solution results with latent"}]}
{"smiles": "O.O=C[C@@H](O)[C@H](O)[C@@H](O)[C@@H](O)CO", "note": "[L-glucose monohydrate]", "values": [{"measurement": "Observations: clusters or clumping of solid", "setting": "[8]; 5 min. delay", "result": "Several clusters of solid at 1 min. Final solution"}, {"measurement": "Time of stirring until sample fully dissolved", "setting": "[8]; 5 min. delay before stirring, listed as L- glucose monohydrate^1, monohydrate", "result": "Sample fully dissolved after 2.5 min. of stirring."}, {"measurement": "Time of stirring until sample fully dissolved", "setting": "[8]; 5 min. delay before stirring, listed as L- glucose monohydrate^2, monohydrate", "result": "Fully dissolved after 1 min. of stirring. Final"}, {"measurement": "Observations: appearance of final solution", "setting": "[8]; 5 min. delay, listed as L- glucose monohydrate^2, monohydrate", "result": "solution was clear, colorless and homogeneous"}, {"measurement": "Observations: clusters or clumping of solid", "setting": "[8]; No delay", "result": "Several clusters of solid at 1 min. Final solution"}, {"measurement": "Time of stirring until sample fully dissolved", "setting": "[8]; No delay (stirred immediately), listed as L- glucose monohydrate^1, monohydrate", "result": "Sample fully dissolved after 2.5 min. of stirring."}, {"measurement": "Time of stirring until sample fully dissolved", "setting": "[8]; No delay (stirred immediately), listed as L- glucose monohydrate^2, monohydrate", "result": "Fully dissolved after 2 min. of stirring. Final"}, {"measurement": "Observations: appearance of final solution", "setting": "[8]; No delay, listed as L- glucose monohydrate^2, monohydrate", "result": "solution was clear, colorless and homogeneous"}]}
